Tests used:
A549 (lung) cancer cells = assay: MTT cell viability assay, A549; format: cell-based; conditions: Homo sapiens, A549, 48 h, average ± SD (n = 3)
Method: (§1) Compounds 4a–n were subjected to the cytotoxicity screening of the cell lines MCF-7 (breast), LoVo (colon), HepG2 (liver) and A549 (lung) carcinoma cells as well as HUVEC normal cell lines. The MTT assay was employed to assess cytotoxicity after 48 h of treatment with different concentrations of each compound and doxorubicin was used as a reference drug. The results were presented in Table 1 as growth inhibitory concentration (IC50 values).
(§2) Cell viability was determined using 3-(4,5-dimethylthiazol-2-yl)-2,5-diphenyl tetrazolium bromide (MTT) assay as stated previously. In brief, A549 (lung), HepG2 (liver), LoVo (colon), MCF-7 (breast) cancer cells as well as normal cells (HUVEC) were seeded in 96-well plates (10^5 per well) and compounds were added in a different final concentration. All cells were treated for 48 h, and then 10μL of MTT reagent (5 mg/mL) was added to each well and further incubated for 4 h. Thereafter, 0.1 mL of acidified isopropanol was added to solubilize formazan product and the developed color was measured at 570 nm in Microplate ELISA Reader (BioTek, Elx-800, Winooski, VT, USA). The IC50 values (concentration required for 50% inhibition of cell viability) were calculated using dose response curve. Cell viability was calculated as = (Ab Treated/Ab Control) × 100.
(§3) The A549, HepG2, LoVo and MCF-7 cancer cell lines were obtained from the German Collection of Microorganisms and Cell Cultures (DSMZ) (Braunschweig, Germany). For Human umbilical vein endothelial cells (HUVEC cells), it was purchased from American Type Culture Collection (16549; Cat no. PCS-100-010; ATTCC, Manassas, VA, USA).

[1] = test system: HepG2 (liver) cancer cells; assay: MTT cell viability assay, HepG2; format: cell-based; conditions: Homo sapiens, 48 h, average ± SD (n = 3)
Method: as §1, §2, §3

[2] = test system: LoVo (colon) cancer cells; assay: MTT cell viability assay, LoVo; format: cell-based; conditions: Homo sapiens, 48 h, average ± SD (n = 3)
Method: as §1, §2, §3

[3] = test system: MCF-7 (breast) cancer cells; assay: MTT cell viability assay, MCF-7; format: cell-based, human; conditions: for IC50: Homo sapiens, MCF7, 48 h, average ± SD (n = 3); for cytotoxic activity (in words, SAR discussion): 48 h
Method: as §1, §2, §3

HUVEC normal cells = assay: MTT cell viability assay, normal HUVEC; format: cell-based; conditions: Homo sapiens, 48 h, average ± SD (n = 3)
Method: as §1, §2, §3

| Structure (SMILES) | IC50 (A549 (lung) cancer cells) [µM] | IC50 [1] [µM] | IC50 [2] [µM] | IC50 [3] [µM] | melting point [°C] | IC50 (HUVEC normal cells) [µM] | cytotoxic activity (in words, SAR discussion) [3] |
| --- | --- | --- | --- | --- | --- | --- | --- |
| COc1cccc2c(=O)n(-c3ccc(S(=O)(=O)NCC(=O)Nc4c(C)cccc4[N+](=O)[O-])cc3)c(SCC(=O)Nc3c(C)cccc3[N+](=O)[O-])nc12 [Compound 4m, 2-(4-(8-Methoxy-2-((2-((2-methyl-6-nitrophenyl)amino)-2-oxoethyl)thio)-4-oxoquinazolin-3(4H)-yl)phenylsulfonamido)-N-(2-methyl-6-nitrophenyl)acetamide] | > 40 | > 40 | > 40 | > 40 | 272 to 274 | > 40 | – |
| COc1cc(NC(=O)CNS(=O)(=O)c2ccc(-n3c(SCC(=O)Nc4cc(OC)cc(OC)c4)nc4c(OC)cccc4c3=O)cc2)cc(OC)c1 [Compound 4j, N-(3,5-Dimethoxyphenyl)-2-((3-(4-N-(2((3,5-dimethoxyphenyl)amino)-2-oxoethyl)-sulfa-moyl)phenyl-8-methoxy-4-oxo-3,4-dihydroquinazolin-2-yl)thio)acetamide] | > 40 | > 40 | > 40 | > 40 | 239 to 241 | > 40 | – |
| COc1cccc2c(=O)n(-c3ccc(S(=O)(=O)NCC(=O)Nc4ccc([N+](=O)[O-])cc4C)cc3)c(SCC(=O)Nc3ccc([N+](=O)[O-])cc3C)nc12 [Compound 4l, 2-(4-(8-Methoxy-2-((2-((2-methyl-4-nitrophenyl)amino)-2-oxoethyl)thio)-4-oxoquinazolin-3(4H)-yl)phenylsulfonamido)-N-(2-methyl-4-nitrophenyl)acetamide] | > 40 | > 40 | > 40 | > 40 | 127 to 129 | > 40 | – |
| COc1cccc2c1C(=O)c1c(O)c3c(c(O)c1C2=O)C[C@@](O)(C(=O)CO)C[C@@H]3O[C@H]1C[C@H](N)[C@H](O)[C@H](C)O1 [Doxorubicin, reference compound] | 1.1 ± 0.01 | – | 1.5 ± 0.05 | 1.4 ± 0.3 | – | 3.7 ± 0.2 | – |
| COc1cccc2c(=O)n(-c3ccc(S(=O)(=O)NCC(=O)Nc4ccccc4C)cc3)c(SCC(=O)Nc3ccccc3C)nc12 [Compound 4b] | 11.4 ± 1.6 | 33.7 ± 0.8 | 35.8 ± 1 | 36.2 ± 2 | 102 to 104 | 32.7 ± 1.2 | – |
| CCc1ccccc1NC(=O)CNS(=O)(=O)c1ccc(-n2c(SCC(=O)Nc3ccccc3CC)nc3c(OC)cccc3c2=O)cc1 [Compound 4e, N-(2-ethylphenyl)-2-((3-(4-(N-(2-((2-ethylphenyl)amino)-2-oxoethyl)sulfamoyl)-phe-nyl)-8-methoxy-4-oxo-3,4-dihydroquinazolin-2yl)thio)acetamide] | > 40 | > 40 | > 40 | > 40 | 246 to 248 | > 40 | no antiproliferative |
| COc1cccc2c(=O)n(-c3ccc(S(=O)(=O)NCC(=O)Nc4ccccc4)cc3)c(SCC(=O)Nc3ccccc3)nc12 [Compound 4a] | 19.6 ± 1.7 | 35 ± 1.2 | 37.5 ± 1.8 | 14.2 ± 0.4 | 165 to 167 | 20.9 ± 1 | – |
| COc1cc(NC(=O)CNS(=O)(=O)c2ccc(-n3c(SCC(=O)Nc4cc(OC)c(OC)c(OC)c4)nc4c(OC)cccc4c3=O)cc2)cc(OC)c1OC [Compound 4k] | > 40 | > 40 | > 40 | > 40 | 260 to 262 | > 40 | – |

Further lines, with some results ahead:

| IC50 (A549 (lung) cancer cells) [µM] | IC50 [1] [µM] | IC50 [2] [µM] | IC50 [3] [µM] | melting point [°C] | Structure (SMILES) | IC50 (HUVEC normal cells) [µM] | cytotoxic activity (in words, SAR discussion) [3] |
| --- | --- | --- | --- | --- | --- | --- | --- |
| 13.8 ± 0.5 | 20.6 ± 1.6 | 22 ± 1.01 | 26.4 ± 0.79 | > 350 | CCOc1ccc(NC(=O)CNS(=O)(=O)c2ccc(-n3c(SCC(=O)Nc4ccc(OCC)cc4)nc4c(OC)cccc4c3=O)cc2)cc1 [Compound 4i, N-(4-Ethoxyphenyl)-2-((3-(4-N-(2((4-ethoxyphenyl)amino)-2-oxoethyl)sulfamoyl)-phenyl-8-methoxy-4-oxo-3,4-dihydroquinazolin-2-yl)thio)acetamide] | 18.2 ± 2.2 | – |
| > 40 | > 40 | > 40 | > 40 | 112 to 114 | COc1cccc2c(=O)n(-c3ccc(S(=O)(=O)NCC(=O)Nc4cccc(C)c4)cc3)c(SCC(=O)Nc3cccc(C)c3)nc12 [Compound 4c] | > 40 | abolishes the cytotoxicity |
| > 40 | > 40 | > 40 | > 40 | 219 to 221 | CCc1ccc(NC(=O)CNS(=O)(=O)c2ccc(-n3c(SCC(=O)Nc4ccc(CC)cc4)nc4c(OC)cccc4c3=O)cc2)cc1 [Compound 4g, N-(4-ethylphenyl)-2-((3-(4-(N-(2-((4-ethylphenyl)amino)-2-oxoethyl)sulfamoyl)-phenyl)-8-methoxy-4-oxo-3,4-dihydroquinazolin-2yl)thio)acetamide] | > 40 | no antiproliferative |
| 13.3 ± 0.85 | 25.4 ± 0.95 | 31.7 ± 1 | 31.6 ± 1.3 | 117 to 119 | COc1ccc(NC(=O)CNS(=O)(=O)c2ccc(-n3c(SCC(=O)Nc4ccc(OC)cc4)nc4c(OC)cccc4c3=O)cc2)cc1 [Compound 4h, 2-(4-(8-Methoxy-2-((2-((4-methoxyphenyl)amino)-2-oxoethyl)thio)-4-oxoquinazolin-3(4H)-yl)phenylsulfonamido)-N-(4-methoxy-phenyl)acetamide] | – | – |
